Data taken from ChEMBL document CHEMBL5608179, “Triptonide induces apoptosis and inhibits the proliferation of ovarian cancer cells by activating the p38/p53 pathway and autophagy” (Bioorg Med Chem, 2024).
The source made the active and inactive calls. No cut-off for these calls is given here.

What was measured:
A2780 [1] = test: In vivo antitumor activity against human A2780 cells subcutaneously inoculated in BALB/c-nu mouse assessed as reduction in tumor weight at 3 to 5 mg/kg, ip administered every day for 20 days; format: functional, organism-based; details: dose 3-5 mg/kg, time 20.0 day
A2780 [2] = test: Induction of apoptosis in human A2780 cells assessed as increase in cleaved caspase 9 level measured at 5 to 20 nM by Western blot analysis; format: functional, cell-based; details: dose 5-20 nM, time 12-48 hrs, TDE = time-dependent effect
A2780 [3] = test: Induction of apoptosis in human A2780 cells assessed as late apoptotic cells in presence of p53 SiRNA 1 at 4 nM measured after 24 hrs by Annexin V-FITC/PI flow cytometry (reference value: 2.54%); format: functional
A2780 [4] = test: Induction of cell cycle arrest in human A2780 cells assessed as accumulation of cells at G2 phase at 4 nM measured after 24 hrs by PI staining based Cell Cycle Analysis Kit (KeyGEN) (reference value: 24.5%); format: functional
A2780 [5] = test: Induction of apoptosis in human A2780 cells assessed as viable cells at 800 nM measured after 24 hrs by Annexin V-FITC/PI flow cytometry (reference value: 96.1%); format: functional; details: read-out: Activity
A2780 [6] = test: Antiproliferative activity against human A2780 cells assessed as number of fluorescent dots in presence of p53 SiRNA 2 at 4 nM measured after 24 hrs by KitkFluor555 Click-iT EdU Kit staining assay; format: functional, cell-based
A2780 [7] = test: Induction of apoptosis in human A2780 cells assessed as viable cells in presence of p53 SiRNA 1 at 4 nM measured after 24 hrs by Annexin V-FITC/PI flow cytometry (reference value: 94.2%); format: functional
A2780 [8] = test: Antiproliferative activity against human A2780 cells assessed as number of fluorescent dots in presence of SB203580 at 4 nM measured after 24 hrs by KitkFluor555 Click-iT EdU Kit staining assay; format: functional, cell-based
A2780 [9] = test: Induction of apoptosis in human A2780 cells assessed as decrease in cleaved Bcl-xL level measured at 5 to 20 nM after 12 to 48 hrs by Western blot analysis; format: functional, cell-based; details: dose 5-20 nM, time 12-48 hrs
A2780 [10] = test: Induction of cell cycle arrest at S phase in human A2780 cells assessed as increase in cyclin B1 proteins in presence of SB203580 measured at 10 nM after 24 hrs by Western blot analysis; format: functional, cell-based
A2780 [11] = test: Induction of cleaved PARP level in human A2780 cells in presence of autophagy inhibitor bafilomycin A1 at 5 to 20 nM measured after 24 hrs by Western blot analysis; format: functional, cell-based; details: dose 5-20 nM
A2780 [12] = test: Induction of apoptosis in human A2780 cells assessed as viable cells at 4 nM measured after 24 hrs by Annexin V-FITC/PI flow cytometry (reference value: 94.2%); format: functional; details: read-out: Activity
A2780 [13] = test: Induction of cell cycle arrest at S phase in human A2780 cells assessed as increase in CDK2 proteins in presence of SB203580 measured at 10 nM after 24 hrs by Western blot analysis; format: functional, cell-based
A2780 [14] = test: Induction of apoptosis in human A2780 cells assessed as early apoptotic cells in presence of bafilomycin A1 at 800 nM measured after 24 hrs by Annexin V-FITC/PI flow cytometry (reference value: 2.17%); format: functional
A2780 [15] = test: Induction of apoptosis in human A2780 cells assessed as necrotic cells in presence of SB203580 at 8 nM measured after 24 to 72 hrs by Annexin V-FITC/PI flow cytometry (reference value: 0.39%); format: functional; details: time 24-72 hrs
A2780 [16] = test: Induction of apoptosis in human A2780 cells assessed as early apoptotic cells in presence of p53 SiRNA 2 at 4 nM measured after 24 hrs by Annexin V-FITC/PI flow cytometry (reference value: 2.82%); format: functional
A2780 [17] = test: Induction of cell cycle arrest at S phase in human A2780 cells assessed as increase in cyclin B1 proteins measured after 24 hrs by Western blot analysis; format: functional, cell-based; details: dose 5-20 nM
A2780 [18] = test: Induction of apoptosis in human A2780 cells assessed as apoptotic rate measured at 2 to 8 nM by Annexin V-FITC/PI flow cytometry; format: functional, cell-based; details: dose 2-8 nM, time 24-72 hrs, TDE = time-dependent effect
A2780 [19] = test: Induction of apoptosis in human A2780 cells assessed as increase in cleaved caspase 9 level measured after 12 to 48 hrs by Western blot analysis; format: functional, cell-based; details: dose 5-20 nM, time 12-48 hrs
A2780 [20] = test: Induction of apoptosis in human A2780 cells assessed as necrotic cells at 800 nM measured after 24 hrs by Annexin V-FITC/PI flow cytometry (reference value: 0.18%); format: functional
A2780 [21] = test: Induction of cell cycle arrest in human A2780 cells assessed as accumulation of cells at S phase at 1 nM measured after 24 hrs by PI staining based ell Cycle Analysis Kit (KeyGEN) (reference value: 10%); format: functional
A2780 [22] = test: Induction of cell cycle arrest in human A2780 cells assessed as accumulation of cells at S phase at 4 nM measured after 24 hrs by PI staining based Cell Cycle Analysis Kit (KeyGEN) (reference value: 15%); format: functional
A2780 [23] = test: Induction of apoptosis in human A2780 cells assessed as early apoptotic cells at 800 nM measured after 24 hrs by Annexin V-FITC/PI flow cytometry (reference value: 2.17%); format: functional
A2780 [24] = test: In vivo antitumor activity against human A2780 cells subcutaneously inoculated in BALB/c-nu mouse assessed as reduction in tumor volume at 3 to 5 mg/kg, ip administered every day for 20 days; format: functional, organism-based; details: dose 3-5 mg/kg, time 20.0 day
A2780 [25] = test: Induction of apoptosis in human A2780 cells assessed as necrotic cells in presence of p53 SiRNA 1 at 4 nM measured after 24 hrs by Annexin V-FITC/PI flow cytometry (reference value: 0.39%); format: functional
A2780 [26] = test: Induction of cell cycle arrest at S phase in human A2780 cells assessed as increase in cyclin E1 proteins measured after 24 hrs by Western blot analysis; format: functional, cell-based; details: dose 5-20 nM
A2780 [27] = test: Induction of apoptosis in human A2780 cells assessed as necrotic cells in presence of p53 SiRNA 2 at 4 nM measured after 24 hrs by Annexin V-FITC/PI flow cytometry (reference value: 0.39%); format: functional
A2780 [28] = test: Induction of apoptosis in human A2780 cells assessed as late apoptotic cells at 800 nM measured after 24 hrs by Annexin V-FITC/PI flow cytometry (reference value: 1.58%); format: functional
A2780 [29] = test: Induction of apoptosis in human A2780 cells assessed as viable cells in presence of SB203580 at 8 nM measured after 24 to 72 hrs by Annexin V-FITC/PI flow cytometry (reference value: 94.2%); format: functional; details: time 24-72 hrs
[30] = Toxicity in BALB/c-nu mouse subcutaneously inoculated with human A2780 cells assessed as morphological changes of heart at 3 to 5 mg/kg, ip administered every day for 20 days by HE staining analysis; format: organism-based; details: in vivo, sc, 480 h, dose 3-5 mg/kg, time 20 day
A2780 [31] = test: Induction of apoptosis in human A2780 cells assessed as decrease in cleaved Bcl-2 level measured at 5 to 20 nM after 12 to 48 hrs by Western blot analysis; format: functional, cell-based; details: dose 5-20 nM, time 12-48 hrs

SMILES: CC(C)[C@]12O[C@H]1[C@@H]1O[C@]13[C@]1(O[C@H]1C[C@H]1C4=C(CC[C@@]13C)C(=O)OC4)[C@@H]2O [TRIPTOLIDE]
- Activity (A2780 [1]): Active
- Activity (A2780 [2]): Tde
- Activity (A2780 [3]): 14.3%
- Activity (A2780 [4]): 27.4%
- viability at 0.8 µM (A2780 [5]): 74%
- Activity (A2780 [6]): inactive
- Activity (A2780 [7]): 65.9%
- Activity (A2780 [8]): inactive
- Activity (A2780 [9]): Dose-Dependent Effect
- Activity (A2780 [10]): inactive
- Activity (A2780 [11]): inactive
- viability at 0.004 µM (A2780 [12]): 33.1%
- Activity (A2780 [13]): inactive
- Activity (A2780 [14]): 5.02%
- Activity (A2780 [15]): 5.87%
- Activity (A2780 [16]): 12.6%
- Activity (A2780 [17]): Dose-Dependent Effect
- Activity (A2780 [18]): Tde
- Activity (A2780 [19]): Dose-Dependent Effect
- Activity (A2780 [20]): 2.33%
- Activity (A2780 [21]): 14.4%
- Activity (A2780 [22]): 29.4%
- Activity (A2780 [23]): 14.7%
- Activity (A2780 [24]): Active
- Activity (A2780 [25]): 8.18%
- Activity (A2780 [26]): Dose-Dependent Effect
- Activity (A2780 [27]): 6.47%
- Activity (A2780 [28]): 9.01%
- Activity (A2780 [29]): 69%
- Activity [30]: Non-Toxic
- Activity (A2780 [31]): Dose-Dependent Effect
